The values below come from ChEMBL document CHEMBL1126481, “Low molecular weight neurokinin NK2 antagonists” (Bioorg Med Chem Lett, 1993).

One may read the pKB as the KB on a negative log10 scale, so that one unit is a factor of ten. One may read the half-life as how long it takes for the measured level to halve. The low end stands for rapid decline, the high end for slow decline.

The target of series [1] is T1, Substance-K receptor (Cavia porcellus) (UniProt Q64077).
T1 sequence (whole entry): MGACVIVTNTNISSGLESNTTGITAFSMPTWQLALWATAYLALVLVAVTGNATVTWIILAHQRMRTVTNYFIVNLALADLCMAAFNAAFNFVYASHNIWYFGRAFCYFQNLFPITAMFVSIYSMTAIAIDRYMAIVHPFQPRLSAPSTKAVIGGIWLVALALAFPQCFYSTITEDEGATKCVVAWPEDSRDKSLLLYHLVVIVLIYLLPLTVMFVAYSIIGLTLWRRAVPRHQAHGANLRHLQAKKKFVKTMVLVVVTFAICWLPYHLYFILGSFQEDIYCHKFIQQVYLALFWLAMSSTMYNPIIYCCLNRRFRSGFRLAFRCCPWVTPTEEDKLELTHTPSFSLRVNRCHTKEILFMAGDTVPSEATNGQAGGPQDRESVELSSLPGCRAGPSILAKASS
As to the kind of experiment: The compound was tested in vitro for antagonism against Tachykinin receptor 2 in isolated guinea pig trachea. It is filed as functional, tissue-based.

The target in series [2] is T2, Substance-K receptor (Rattus norvegicus) (UniProt P16610).
T2 sequence (whole entry): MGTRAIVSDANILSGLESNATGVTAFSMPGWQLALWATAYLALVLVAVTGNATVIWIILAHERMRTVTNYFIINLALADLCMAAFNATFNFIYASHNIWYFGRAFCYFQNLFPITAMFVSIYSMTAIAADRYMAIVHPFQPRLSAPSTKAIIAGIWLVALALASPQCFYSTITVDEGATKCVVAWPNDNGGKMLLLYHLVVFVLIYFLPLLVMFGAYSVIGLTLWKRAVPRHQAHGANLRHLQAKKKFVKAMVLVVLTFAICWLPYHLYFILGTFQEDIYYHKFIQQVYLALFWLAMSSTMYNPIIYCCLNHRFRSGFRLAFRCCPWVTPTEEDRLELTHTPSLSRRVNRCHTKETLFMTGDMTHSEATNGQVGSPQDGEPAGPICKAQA
The experiment in a line: The compound was tested in vitro for antagonism against Tachykinin receptor 2 in rat colon muscularis mucosae. In kind it is functional, tissue-based. The note with it: Muscularis mucosa.

In series [3] the target is T2, Substance-K receptor (Rattus norvegicus). The experiment in a line: In vitro for antagonism against neurokinin NK2 receptor in rat colon muscularis mucosae. In kind it is functional, tissue-based. The note with it: Muscularis mucosa.
For another series, the species on record is Oryctolagus cuniculus. The experiment in a line: Tested for antagonistic activity of compound in endothelium-deprived rabbit pulmonary artery. As to conditions: read-out: pA2 (converted). In kind it is functional.
Series [4] can be described thus: Biological half life when administered at 5 umol/kg intravenously to guinea pig in GR-64349 antagonism. In kind it is ADME, organism-based, Cavia porcellus. As to conditions: in vivo, iv.
For series [5], the target named is T1, Substance-K receptor (Cavia porcellus). The experiment in a line: The compound was tested […] for antagonism against neurokinin NK2 receptor in isolated guinea pig trachea. In kind it is functional.
Series [6] deals with Substance-P receptor (Cavia porcellus) (UniProt P30547). As to the kind of experiment: The compound was tested […] for antagonism against neurokinin NK1 receptor in isolated guinea pig trachea. In kind it is functional.
The nature of series [7]: Biological half life when administered at 0.1 umol/kg intravenously to guinea pig in GR-64349 antagonism. In kind it is ADME, organism-based, Cavia porcellus. As to conditions: in vivo, iv.

Peptide text beside a SMILES is read from it.

Chain of Substance-P receptor (Cavia porcellus) (P30547 whole entry): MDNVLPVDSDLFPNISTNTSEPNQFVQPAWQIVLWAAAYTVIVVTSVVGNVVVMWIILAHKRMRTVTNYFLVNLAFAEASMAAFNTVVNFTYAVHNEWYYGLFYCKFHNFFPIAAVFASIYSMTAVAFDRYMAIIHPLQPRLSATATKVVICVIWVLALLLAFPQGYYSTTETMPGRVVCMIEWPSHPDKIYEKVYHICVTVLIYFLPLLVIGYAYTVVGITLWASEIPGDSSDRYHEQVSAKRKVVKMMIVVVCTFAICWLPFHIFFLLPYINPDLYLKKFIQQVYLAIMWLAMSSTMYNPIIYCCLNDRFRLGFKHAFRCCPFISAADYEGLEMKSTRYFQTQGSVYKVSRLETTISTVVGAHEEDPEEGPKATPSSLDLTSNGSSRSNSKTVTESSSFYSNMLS

Take `CC(Cc1c[nH]c2ccccc12)NC(=O)[C@H](C)NC(=O)[C@H](C)NC(=O)c1ccccc1` (some centres not stated): the results for the pKB in series [1], in series [2] and in series [3] were 7.4, 6.66 and less than 5, respectively.
Compound `C[C@H](NC(=O)c1ccccc1)C(=O)N[C@@H](C)C(=O)N[C@H](Cc1c[nH]c2ccccc12)C(=O)N(C)CCc1ccccc1` had a pKB in series [3] of 7.4.
With `CC(=O)NC1(c2ccccc2)CCN(CC[C@H](CN(C)C(=O)c2ccccc2)c2ccc(Cl)c(Cl)c2)CC1` [SAREDUTANT], the Kb in the series listed under Oryctolagus cuniculus is 0.0501 nM.
Compound `CC(C)CCN(C)C(=O)[C@@H](Cc1c[nH]c2ccccc12)NC(=O)[C@H](C)NC(=O)c1c[nH]c(-c2ccccc2)n1` gave a half-life in series [4] of 140 min. In addition, the pKB in series [5] turned out to be 7.9; in series [6], 4.9; in series [3], 7.64.
Turning to `C[C@H](NC(=O)c1ccccc1)C(=O)N[C@@H](C)C(=O)N[C@H](C#N)Cc1c[nH]c2ccccc12`, the half-life in series [4] came to 20 min. Besides, the values for the pKB in series [5] and in series [3] were 7.4 and 6.8, respectively.
Consider `C[C@H](NC(=O)CNC(=O)C1CCCCC1)C(=O)N[C@H](Cc1c[nH]c2ccccc12)C(=O)N[C@@H](Cc1ccccc1)C(=O)N(C)C` (HELM PEPTIDE1{[O=C(C1CCCCC1)[*:2]].G.A.[dW].F.[CN(C)[*:1]]}$$$$V2.0), for which the pKB in series [5] amounted to 9.3; in series [6] it was 5.1; in series [3], 9.05. The compound also yielded a half-life in series [7] of 26 min.
With `C[C@H](NC(=O)c1ccccc1)C(=O)N[C@@H](C)C(=O)N[C@H](Cc1c[nH]c2ccccc12)C(=O)N[C@@H](Cc1ccccc1)C(=O)N(C)C`, the pKB in series [3] stood at 8.56.
On the same count and under the same terms, under `C[C@H](NC(=O)c1ccccc1)C(=O)N[C@@H](C)C(=O)NCCc1c[nH]c2ccccc12` stands 6.02; under `C[C@H](NC(=O)c1ccccc1)C(=O)N[C@@H](C)C(=O)N[C@H](Cc1c[nH]c2ccccc12)C(=O)N[C@@H](Cc1ccccc1)C(=O)O`, 6.6; under `C[C@H](NC(=O)c1ccccc1)C(=O)N[C@@H](C)C(=O)N[C@H](Cc1c[nH]c2ccccc12)C(=O)N(C)C`, 6.45.
Still for that read-out and setting: to `C[C@H](NC(=O)CNC(=O)c1ccccc1)C(=O)N[C@H](Cc1c[nH]c2ccccc12)C(=O)N[C@@H](Cc1ccccc1)C(=O)N(C)C` belongs 8.87; to `CC(C)CCN(C)C(=O)[C@@H](Cc1c[nH]c2ccccc12)NC(=O)[C@H](C)NC(=O)[C@H](C)NC(=O)c1ccccc1`, 8.
